This assay deals with carrageenan-induced paw edema. Put plainly: Rat paw edema assay (carrageenan). The class given is in vivo, Male Sprague-Dawley rats. Conditions: po, 1 hr before carrageenan, paw volume 3 hr after. The method, then:
Male Sprague-Dawley rats (150-200g) were fasted overnight and were given po either vehicle (5% tween 80 or 1% methocel) or a test compound at 9-10 am. One hr later, a line was drawn using a permanent marker at the level above the ankle in one hind paw to define the area of the paw to be monitored. The paw volume (VOh) was measured using a plethysmometer (Ugo-Basile,Italy) based on the principle of water displacement. The animals were then injected subplantarly with 50 ul of a 1% carrageenan solution in saline (FMC Corp, Maine) into the paw using an insulin syringe with a 25-gauge needle (i.e. 500 ug carrageenan per paw). Three hr later, the paw volume (V3h) was measured and the increases in paw volume (V3h -VOh) were calculated. The animals were euthanized by CO2 aphyxiation and the absence or presence of stomach lesions scored. Stomach scores were expressed as the sum of total lesions in mm. Paw edema data were compared with the vehicle-control group and percent inhibition calculated taking the values in the control group as 100%. […] All treatment groups were coded to eliminate observer bias.
On the technique in general: Carrageenan injected into the paw causes an acute inflammation.

Read-outs that look alike come from different tables or passages of the source.

As to `CS(=O)(=O)c1ccc(C2=C(c3ccc(Cl)c(Cl)c3)C(=O)OC2)cc1`, the ED30 (Table I, column head not given) was found to be 0.23 mg/kg. With `CS(=O)(=O)c1ccc(C2=C(c3ccc(F)c(Br)c3)C(=O)OC2)cc1`, the ED30 (Rattus norvegicus, 3 h, read-out: ED30 (Table I, column head not given)) was about 1 mg/kg. As for `COc1ccc2c(c1)c(CC(=O)O)c(C)n2C(=O)c1ccc(Cl)cc1` [Indomethacin, reference compound], the ED30 (read-out: ED30) was determined as 1 mg/kg.
